Source: article PMC6494957 (Frontiers in Microbiology, 2019)
≈ marks a conversion by molar mass, not a printed value. Positions of bridges follow the written chain, without caps; N, C: chain ends. Non-standard residues stand in square brackets, D forms with d. Residues, ends and D or L forms follow the SMILES beside them. Dab = NCC[C@H](N)C(=O)O

Columns and labels:
[1] = system: S. pseudintermedius (n = 20) clinical isolates from otitis externa cases in dogs; assay: MIC/MBC and checkerboard, canine otitis externa isolates; format: cell-based, Staphylococcus pseudintermedius; conditions: canine otitis externa; for MIC50 / MIC90: Staphylococcus pseudintermedius; for MIC50: read-out: MIC50, single drug; for MIC90: read-out: MIC90, single drug
Description: (§1) Escherichia coli ATCC 25922, E. coli ATCC 11229, P. aeruginosa ATCC 27853, P. aeruginosa PA01, Pseudomonas putida ATCC 17428, P. mirabilis ATCC 43071, K. pneumoniae ATCC 13883, A. baumannii ATCC 19606, and A. baumannii ATCC 12457 were used for preliminary susceptibility testing and combination experiments. S. aureus ATCC 29213 and S. pneumoniae ATCC 49619 were used as internal quality controls. A variety of bacterial organisms from both human and canine infections were investigated in this study (n = 119 isolates in total). Twenty-eight clinical Acinetobacter spp. isolates were obtained from cases of human skin and soft tissue infections, including 18 Acinetobacter baumannii and 10 A. calcoaceticus, kindly provided by a person (Institute of Medical and Veterinary Science, South Australia). […] Ninety-one clinical isolates were obtained from cases of canine otitis externa, including seven methicillin-susceptible S. pseudintermedius (MSSP), 13 multidrug- and methicillin-resistant S. pseudintermedius (MRSP) ([Saputra et al., 2017]), 20 beta-haemolytic Streptococcus spp., 30 P. aeruginosa (10 of them resistant to gentamicin and 21 P. mirabilis isolates). These isolates were obtained from the bacterial collection of the national survey of antimicrobial resistance in animals conducted in Australia. Swab samples from dogs with signs of otitis externa were collected by veterinarians and submitted to government, private or university diagnostic laboratories throughout Australia. After routine bacterial identification and the removal of confidential information, the participating veterinary diagnostic laboratories submitted the bacteria and their clinical information to PC2 Laboratories, Australian Centre for Antimicrobial Resistance Ecology, School of Animal and Veterinary Sciences, University of Adelaide, Roseworthy Campus, Roseworthy, SA, Australia, for further study. Thus, animal ethics approval was not required in this study. These organisms were identified to species level using biochemical testing and MALDI-TOF mass spectrometry (Bruker, Preston, VIC, Australia).
(§2) The MIC for ampicillin or gentamicin against each isolate was determined for each test to serve as an internal quality control. The MICs of isolates were determined by visual reading and using an EnSpire Multimode Plate Reader 2300 atA600nm.
(§3) Briefly, 10 μl aliquots from each duplicate well from the MIC assays (starting from the MIC for each compound) were inoculated onto a sheep blood agar (SBA) plate and incubated at 37°C.
(§4) Briefly, antimicrobial stock solutions for robenidine and PMBN were prepared at a concentration of 12.8 mg/ml in DMSO. […] A 1 μl aliquot of the first compound from each combination was dispensed along the abscissa (from row A to G) of the 96-well microplate, while the second compound was dispensed along the ordinate (from column 12 to column 3) using an electronic multichannel pipette followed by 89 μl of LB broth. Each well of the plate was inoculated with an aliquot of 10 μl bacterial suspension at a concentration of 1-5 × 10^6 colony forming units (CFU) per ml. Subsequently, the plate was incubated at 37°C for 24 h. The fractional inhibitory concentration index (FICI) described the results of the combinations, and was calculated utilizing the following formula:
(§5) DRI = MIC of drug alone/MIC of drug in combination

E. coli ATCC 25922 = assay: microbe, parasite or virus in culture; conditions: for MIC: Escherichia coli, ATCC25922, read-out: MIC, single drug
Protocol: as §2, §4, §5

S. pneumoniae ATCC 49619 = assay: MIC broth microdilution, quality control strain; format: cell-based; conditions: Streptococcus pneumoniae, ATCC49619; S. pneumoniae ATCC 49619, quality control strain
Protocol: (§6) Luria Bertani (LB) broth (Oxoid, Australia) was applied for MIC testing in lieu of cation-adjusted Mueller–Hinton broth as robenidine has been previously shown to chelate calcium ions. Furthermore, a twofold serial dilution of robenidine was performed in 100% DMSO, with 1 μl dispensed to each well due to the hydrophobicity of the compound ([Abraham et al., 2016]). The MIC for ampicillin or gentamicin against each isolate was determined for each test to serve as an internal quality control. The MICs of isolates were determined by visual reading and using an EnSpire Multimode Plate Reader 2300 atA600nm.

S. aureus ATCC 29213 = assay: MIC broth microdilution, quality control strain; format: cell-based; conditions: Staphylococcus aureus, ATCC29213; S. aureus ATCC 29213, quality control strain
Protocol: as §6

[2] = system: Beta-haemolytic streptococci (n = 20) clinical isolates from otitis externa cases in dogs; assay: MIC/MBC and checkerboard, canine otitis externa isolates; format: cell-based, beta-haemolytic Streptococcus spp.; conditions: canine otitis externa; for MIC50 / MIC90: Streptococcus; for MIC50: read-out: MIC50, single drug; for MIC90: read-out: MIC90, single drug
Description: as §1, §2, §3, §4, §5

[3] = system: P. mirabilis (n = 21) clinical isolates from otitis externa cases in dogs; assay: as above; format: cell-based, Proteus mirabilis; conditions: canine otitis externa; for MIC50 / MIC90: Proteus mirabilis; for MIC50: read-out: MIC50, single drug; for MIC90: read-out: MIC90, single drug
Description: as §1, §2, §3, §4, §5

[4] = system: P. aeruginosa (n = 30) clinical isolates from otitis externa cases in dogs; assay: as above; format: cell-based, Pseudomonas aeruginosa; conditions: canine otitis externa; for MIC50 / MIC90: Pseudomonas aeruginosa; for MIC50: read-out: MIC50, single drug; for MIC90: read-out: MIC90, single drug
Description: as §1, §2, §3, §4, §5

P. aeruginosa ATCC 27853 = assay: microbe, parasite or virus in culture; conditions: for MIC: Pseudomonas aeruginosa, ATCC27853, read-out: MIC, single drug
Protocol: as §2, §4, §5

[5] = system: Gram-negative control strains; assay: Checkerboard, summary over Gram-negative strains; format: cell-based; conditions: in combination with robenidine; for P. aeruginosa
Protocol: as §4, §5

[6] = system: all the cell lines tested (HaCaT, HEK 293, MDCK); assay: cells; conditions: 24 h
Protocol: Cells were maintained in Dulbecco’s modified Eagle’s medium (DMEM) with 10% fetal bovine serum (FBS) and 1% PenStrep (100 U/mL Penicillin and 100 μg/mL Streptomycin) at 37°C with 5% CO2. Cells were serially passaged at ∼80% confluence ∼ every 4 days. Assays were performed in duplicate in 96 well plates seeded with ∼25,000 cells per well. […] Briefly, the antimicrobials were prepared by performing a twofold serial dilution at 100× of tested concentration in DMSO. Subsequently, a 1 μl aliquot of each concentration was transferred to a sterile 96-well plate containing fresh DMEM with either 10% FBS. After mixing four times, the media aliquots with different concentrations of antimicrobial were transferred to each well of the 96-well plate seeded with cells, using wells containing 1–2% DMSO only as control. To determine the effect of FBS on the cytotoxicity of each compound, DMEM with 40% FBS containing different concentrations of antimicrobial was prepared as described above. After 24 h of exposure, WST-1 reagent (Cell Proliferation Assay reagent, Roche) at a concentration of 10% was added to each well. Absorbance at A450 nm on a Multiskan Ascent 354 Spectrophotometer (Labsystems) was measured after 1 h of incubation. The IC50 value was determined for each compound against each cell line via non-linear regression (three parameters) using GraphPad Prism v6 software.

[7] = system: A. calcoaceticus (human clinical isolate); assay: microbe, parasite or virus in culture
Protocol: as §2, §4, §5

A. baumannii ATCC 12457 = assay: microbe, parasite or virus in culture
Protocol: as §2, §4, §5

A. baumannii ATCC 19606 = assay: microbe, parasite or virus in culture
Protocol: as §2, §4, §5

K. pneumoniae ATCC 13883 = assay: microbe, parasite or virus in culture
Protocol: as §2, §4, §5

P. putida ATCC 17428 = assay: microbe, parasite or virus in culture
Protocol: as §2, §4, §5

P. mirabilis ATCC 43071 = assay: microbe, parasite or virus in culture; conditions: ATCC 43071, 24 h
Protocol: as §2, §4, §5

E. coli ATCC 11229 = assay: microbe, parasite or virus in culture
Protocol: as §2, §4, §5

Row | SMILES | MIC50 [1] [µg/mL] | MIC90 [1] [µg/mL] | MIC range, single drug [1] [µg/mL] | MIC (E. coli ATCC 25922) [µg/mL] | MIC (S. aureus ATCC 29213) [µg/mL] | MIC50 [2] [µg/mL] | MIC90 [2] [µg/mL] | MIC range, single drug [2] [µg/mL] | MIC50 [3] [µg/mL] | MIC90 [3] [µg/mL] | MIC50 [4] [µg/mL] | MIC90 [4] [µg/mL] | MIC range, single drug [4] [µg/mL] | MIC (P. aeruginosa ATCC 27853) [µg/mL] | other results
1 | CC1(C)S[C@@H]2[C@H](NC(=O)[C@H](N)c3ccccc3)C(=O)N2[C@H]1C(=O)O [Ampicillin, ampicillin] | 0.125 | 8 | 0.03 to 32 | 4 | 1 (≈ 2.86 µM) | 0.125 | 0.25 | 0.06 to 0.5 |  |  |  |  |  |  | MIC (S. pneumoniae ATCC 49619): 0.125 µg/mL (≈ 0.358 µM)
2 | CN[C@@H]1[C@@H](O[C@H]2O[C@H](CO)[C@@H](N)[C@H](O)[C@H]2O)OC2C[C@@H](N)[C@@H](O[C@H]3[C@H](O)[C@@H](O)[C@H](N)C[C@@H]3N)OC2[C@@H]1O (stereo partly drawn) [Apramycin, apramycin] | 8 | 16 | 1 to 16 | 8 | 4 (≈ 7.41 µM) | 64 | 128 | 4 to 128 | 32 | 64 | 32 | 64 | 16 to 64 | 16 | MIC range, single drug [3]: 16 to 64 µg/mL
3 | CNC(C)C1CCC(N)C(OC2C(N)CC(N)C(OC3OCC(C)(O)C(NC)C3O)C2O)O1 (stereo not drawn) [Gentamicin, gentamicin] | 2 | 2 | 1 to 64 | 0.5 | 0.5 (≈ 1.05 µM) | 8 | 8 | 8 to 16 | 8 | 32 | 32 | 64 | 0.25 to 64 | 2 | 
4 | CC(C)C[C@@H]1NC(=O)[C@@H](Cc2ccccc2)NC(=O)[C@H](CCN)NC(=O)[C@@H](NC(=O)[C@H](CCN)NC(=O)[C@@H](N)[C@@H](C)O)CCNC(=O)[C@H]([C@@H](C)O)NC(=O)[C@H](CCN)NC(=O)[C@H](CCN)NC1=O [PMBN, polymyxin B nonapeptide] (H-T[Dab][Dab][Dab][dF]L[Dab][Dab]T; lactam 3-C; N-terminus assumed) |  |  |  |  |  |  |  |  |  |  |  |  |  |  | fold reduction of the MIC of PMBN [5]: 4- to 64 fold; IC50 [6]: > 32 µg/mL; MIC, single drug ([7]; 24 h): >32 µg/mL; MIC in combination PMBN:ROB ([7]; A. calcoaceticus human clinical isolate, concentration of the labelled component): 1.5 µg/mL; MIC in combination PMBN:ROB (A. baumannii ATCC 12457; A. baumannii ATCC 12457, concentration of the labelled component): 1 µg/mL; MIC, single drug (A. baumannii ATCC 12457; ATCC 12457, 24 h): >32 µg/mL; MIC, single drug (E. coli ATCC 25922; ATCC 25922, 24 h): >32 µg/mL; MIC in combination PMBN:ROB (E. coli ATCC 25922; E. coli ATCC 25922, concentration of the labelled component): 6 µg/mL; MIC in combination PMBN:ROB (A. baumannii ATCC 19606; A. baumannii ATCC 19606, concentration of the labelled component): 1 µg/mL; MIC, single drug (A. baumannii ATCC 19606; ATCC 19606, 24 h): >32 µg/mL; MIC, single drug (K. pneumoniae ATCC 13883; ATCC 13883, 24 h): >32 µg/mL; MIC in combination PMBN:ROB (K. pneumoniae ATCC 13883; K. pneumoniae ATCC 13883, concentration of the labelled component): 0.5 µg/mL; MIC, single drug (P. putida ATCC 17428; ATCC 17428, 24 h): 4 µg/mL; MIC in combination PMBN:ROB (P. putida ATCC 17428; P. putida ATCC 17428, concentration of the labelled component): 1:1 μg/ml; MIC, single drug (P. aeruginosa ATCC 27853; ATCC 27853, 24 h): 2 µg/mL; MIC in combination PMBN:ROB (P. aeruginosa ATCC 27853; P. aeruginosa ATCC 27853, concentration of the labelled component): 0.75 µg/mL; MIC, single drug (P. mirabilis ATCC 43071): >32 µg/mL; MIC, single drug (E. coli ATCC 11229; ATCC 11229, 24 h): >32 µg/mL; MIC in combination PMBN:ROB (E. coli ATCC 11229; E. coli ATCC 11229, concentration of the labelled component): 6 µg/mL
